Assay results published in ChEMBL document CHEMBL4406804, “Discovery of a Potent Steroidal Glucocorticoid Receptor Antagonist with Enhanced Selectivity against the Progesterone and Androgen Receptors (OP-3633)” (J Med Chem, 2019).
pIC50: −log10 of the molar value.

Columns and labels:
[1] = Toxicity in female rat assessed as effect on uterine weight at 250 mg/kg/day, po administered once daily via gavage for 14 days; type: organism-based; conditions: in vivo, 336 h
[2] = AUC in dog at 5 mg/kg, po; type: ADME, organism-based, Canis lupus familiaris; conditions: in vivo
Cytochrome P450 2C8 = target: T1, Cytochrome P450 2C8 (Homo sapiens, UniProt P10632); experiment: Inhibition of CYP2C8 (unknown origin) using paclitaxel as substrate; type: ADME
T1 sequence (P10632 whole entry): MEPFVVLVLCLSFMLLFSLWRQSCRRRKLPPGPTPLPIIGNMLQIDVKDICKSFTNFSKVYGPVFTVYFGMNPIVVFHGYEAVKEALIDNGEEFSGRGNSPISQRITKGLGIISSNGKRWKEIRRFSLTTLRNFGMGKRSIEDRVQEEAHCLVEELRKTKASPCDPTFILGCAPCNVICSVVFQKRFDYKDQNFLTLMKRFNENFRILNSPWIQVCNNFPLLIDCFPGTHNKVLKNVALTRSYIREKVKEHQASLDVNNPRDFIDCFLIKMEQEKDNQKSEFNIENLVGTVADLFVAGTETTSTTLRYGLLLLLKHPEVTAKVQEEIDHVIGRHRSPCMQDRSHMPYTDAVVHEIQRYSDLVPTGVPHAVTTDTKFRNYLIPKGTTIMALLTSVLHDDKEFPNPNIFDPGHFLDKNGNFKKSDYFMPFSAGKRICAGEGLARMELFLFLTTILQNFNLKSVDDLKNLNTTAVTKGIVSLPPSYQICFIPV

[3] = Clearance in mini-pig at 0.5 mg/kg, iv; type: ADME, organism-based, Sus scrofa domesticus; conditions: in vivo
[4] = Oral bioavailability in dog at 5 mg/kg; type: ADME, organism-based, Canis lupus familiaris; conditions: in vivo
Glucocorticoid receptor = target: T2, Glucocorticoid receptor (Homo sapiens, UniProt P04150); experiment: Displacement of fluormone tracer from full length human recombinant glucocorticoid receptor expressed in baculovirus expression system incubated for 2 hrs by competitive fluorescence polarization binding assay
T2 sequence (P04150 whole entry): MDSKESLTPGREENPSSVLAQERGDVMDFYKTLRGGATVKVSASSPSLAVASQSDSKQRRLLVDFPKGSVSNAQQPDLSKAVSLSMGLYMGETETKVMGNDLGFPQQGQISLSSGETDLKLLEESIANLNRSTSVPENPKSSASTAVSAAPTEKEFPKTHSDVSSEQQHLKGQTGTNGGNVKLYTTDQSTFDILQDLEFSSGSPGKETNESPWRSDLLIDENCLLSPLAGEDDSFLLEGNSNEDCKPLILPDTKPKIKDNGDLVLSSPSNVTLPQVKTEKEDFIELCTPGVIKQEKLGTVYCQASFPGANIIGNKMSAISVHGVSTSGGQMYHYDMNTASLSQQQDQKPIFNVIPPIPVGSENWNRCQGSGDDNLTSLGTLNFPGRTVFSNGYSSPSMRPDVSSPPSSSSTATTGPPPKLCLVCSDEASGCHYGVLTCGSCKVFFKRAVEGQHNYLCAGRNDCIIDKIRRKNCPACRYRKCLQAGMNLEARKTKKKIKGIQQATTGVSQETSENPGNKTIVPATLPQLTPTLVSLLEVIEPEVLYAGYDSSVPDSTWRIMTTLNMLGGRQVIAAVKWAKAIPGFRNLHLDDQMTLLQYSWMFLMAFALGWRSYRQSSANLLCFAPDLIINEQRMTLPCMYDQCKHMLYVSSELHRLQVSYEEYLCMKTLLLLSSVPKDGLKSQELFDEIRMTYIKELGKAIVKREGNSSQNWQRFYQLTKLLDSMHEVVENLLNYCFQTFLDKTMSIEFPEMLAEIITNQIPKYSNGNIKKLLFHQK

In the case of `CC#C[C@]1(O)CC[C@H]2[C@@H]3CCC4=CC(=O)CC[C@]4(C)[C@H]3[C@@H](c3ccc(N(C)C)cc3)C[C@@]21C`, the Activity [1] was “Non-Toxic”, the AUC [2] was 5930 ng·h/mL and the pIC50 (Cytochrome P450 2C8) was 5.10. For the same molecule, the clearance [3] was 12.5 mL/min/kg, the bioavailability [4] was 67.6% and the pIC50 (Glucocorticoid receptor) was 8.07.
